Test system: maternal liver
Assay: Maternal liver histopathology (H&E)
Format: in vivo, mouse (CD-1)
Conditions: for CA, any severity: % / CA, any severity: N / CA, marked: % / CA, marked: N / CA, minimal to mild: % / CA, minimal to mild: N / CA, moderate: % / CA, moderate: N / Focal regions of classic necrosis: % / Focal regions of classic necrosis: N / Increase in cell death: % / Increase in cell death: N / Increase in mitotic figures: % / Increase in mitotic figures: N / Vacuolation, any severity: % / Vacuolation, any severity: N / Vacuolation, mild: % / Vacuolation, mild: N / Vacuolation, minimal: % / Vacuolation, minimal: N / Vacuolation, moderate: % / Vacuolation, moderate: N: maternal liver
Text: From each uterus, first, viable embryos and their matched placentas were collected in succession within a horn and immediately snap frozen ( n=2–5 per litter ), and subsequent embryos were collected for growth measurements ( n=2–11 per litter ). Additional placentas were collected and placed in 4% paraformaldehyde (PFA) for histological analysis (Block 2 only). Amniotic fluid was collected by needle aspiration from litters euthanized at E11.5 and snap frozen in liquid nitrogen. Embryo livers were collected from litters euthanized at E17.5 and snap frozen in liquid nitrogen. Dam livers were weighed, a portion of the left lateral lobe was placed in 4% PFA for histology, and another portion of the same lobe was snap frozen in liquid nitrogen. A third liver section was obtained from Block 2 dams and fixed in McDowell and Trump’s fixative for electron microscopy (EM). Gross lesions were collected when observed and placed in 4% PFA for histology. Dam kidneys were removed, a cross section was prepared from the right kidney, a longitudinal section was prepared from the left kidney, and both sections were fixed in 4% PFA for histological analysis.
Dam livers, kidneys, and placentas were trimmed and embedded by the NIEHS Mouse Embryo Phenotyping Core. Tissues collected at necropsy were fixed in 4% PFA for 72 h and paraffin embedded, and 5-μm sections were prepared and stained with hematoxylin and eosin (H&E). Pathology was evaluated and a pathology review conducted by S.A.E. Diplomate American College of Veterinary Pathologists (DACVP). Pathology reviews were conducted as an informed approach analysis [e.g., nonblinded analysis; see Sills et al. ([2019])]. Select tissue slides were scanned using the AT2 Scanner (Aperio). Images were then captured for publication using the ImageScope software; version 12.3.0.5056 (Aperio). Serum and urine obtained from dams in Block 2 were analyzed using the AU480 clinical chemistry analyzer (Beckman Coulter Inc.). Reagents and calibration standards used to measure alkaline phosphatase (ALP), alanine aminotransferase (ALT), aspartate aminotransferase (AST), blood urea nitrogen (BUN), serum creatinine, urine creatinine, glucose (Glu), total protein (TP), triglyceride (Trig), high-density lipoprotein (HDL), cholesterol (Chol), and albumin (ALB) were purchased from Beckman Coulter Inc. Reagents for sorbitol dehydrogenase (SDH), total bile acid (TBA), and micro-TP were purchased from Sekisui Diagnostics. The reagent used to measure low-density lipoprotein (LDL) was purchased form Diazyme Laboratories.

N.O=C(O)C(F)(OC(F)(F)C(F)(F)C(F)(F)F)C(F)(F)F (centres unmarked) [GenX, ammonium 2,3,3,3-tetrafluoro-2-(heptafluoropropoxy)propanoate]
0: CA, marked: N (E11.5, 2 mg/kg/d) | CA, moderate: N (E11.5, 2 mg/kg/d) | Focal regions of classic necrosis: N (E11.5, 2 mg/kg/d) | Vacuolation, any severity: N (E11.5, 2 mg/kg/d) | Vacuolation, mild: N (E11.5, 2 mg/kg/d) | Vacuolation, minimal: N (E11.5, 2 mg/kg/d) | Vacuolation, moderate: N (E11.5, 2 mg/kg/d) | CA, minimal to mild: N (E11.5, 10 mg/kg/d) | Vacuolation, mild: N (E11.5, 10 mg/kg/d) | Vacuolation, moderate: N (E11.5, 10 mg/kg/d) | CA, marked: N (E17.5, 2 mg/kg/d) | Increase in cell death: N (E17.5, 2 mg/kg/d) | Increase in mitotic figures: N (E17.5, 2 mg/kg/d) | Vacuolation, any severity: N (E17.5, 2 mg/kg/d) | Vacuolation, mild: N (E17.5, 2 mg/kg/d) | Vacuolation, minimal: N (E17.5, 2 mg/kg/d) | Vacuolation, moderate: N (E17.5, 2 mg/kg/d) | CA, minimal to mild: N (E17.5, 10 mg/kg/d) | CA, moderate: N (E17.5, 10 mg/kg/d) | Increase in mitotic figures: N (E17.5, 10 mg/kg/d) | Vacuolation, moderate: N (E17.5, 10 mg/kg/d)
80%: Increase in cell death: % (E11.5, 2 mg/kg/d) | Increase in mitotic figures: % (E11.5, 10 mg/kg/d)
0%: CA, marked: % (E11.5, 2 mg/kg/d) | CA, moderate: % (E11.5, 2 mg/kg/d) | Focal regions of classic necrosis: % (E11.5, 2 mg/kg/d) | Vacuolation, any severity: % (E11.5, 2 mg/kg/d) | Vacuolation, mild: % (E11.5, 2 mg/kg/d) | Vacuolation, minimal: % (E11.5, 2 mg/kg/d) | Vacuolation, moderate: % (E11.5, 2 mg/kg/d) | CA, minimal to mild: % (E11.5, 10 mg/kg/d) | Vacuolation, mild: % (E11.5, 10 mg/kg/d) | Vacuolation, moderate: % (E11.5, 10 mg/kg/d) | CA, marked: % (E17.5, 2 mg/kg/d) | Increase in cell death: % (E17.5, 2 mg/kg/d) | Increase in mitotic figures: % (E17.5, 2 mg/kg/d) | Vacuolation, any severity: % (E17.5, 2 mg/kg/d) | Vacuolation, mild: % (E17.5, 2 mg/kg/d) | Vacuolation, minimal: % (E17.5, 2 mg/kg/d) | Vacuolation, moderate: % (E17.5, 2 mg/kg/d) | CA, minimal to mild: % (E17.5, 10 mg/kg/d) | CA, moderate: % (E17.5, 10 mg/kg/d) | Increase in mitotic figures: % (E17.5, 10 mg/kg/d) | Vacuolation, moderate: % (E17.5, 10 mg/kg/d)
1: Focal regions of classic necrosis: N (E11.5, 10 mg/kg/d) | Focal regions of classic necrosis: N (E17.5, 2 mg/kg/d) | Focal regions of classic necrosis: N (E17.5, 10 mg/kg/d)
4: Increase in cell death: N (E11.5, 2 mg/kg/d) | Increase in mitotic figures: N (E11.5, 10 mg/kg/d)
3: Increase in mitotic figures: N (E11.5, 2 mg/kg/d) | CA, marked: N (E11.5, 10 mg/kg/d) | Increase in cell death: N (E11.5, 10 mg/kg/d) | CA, moderate: N (E17.5, 2 mg/kg/d) | Vacuolation, mild: N (E17.5, 10 mg/kg/d)
20%: Focal regions of classic necrosis: % (E11.5, 10 mg/kg/d) | Focal regions of classic necrosis: % (E17.5, 2 mg/kg/d) | Focal regions of classic necrosis: % (E17.5, 10 mg/kg/d)
2: CA, moderate: N (E11.5, 10 mg/kg/d) | CA, minimal to mild: N (E17.5, 2 mg/kg/d) | Vacuolation, minimal: N (E17.5, 10 mg/kg/d)
100%: Incidence of livers with adverse outcomes including cytoplasmic alteration (all dose groups, E11.5 and E17.5) | CA, any severity: % (E11.5, 2 mg/kg/d) | CA, minimal to mild: % (E11.5, 2 mg/kg/d) | CA, any severity: % (E11.5, 10 mg/kg/d) | Vacuolation, any severity: % (E11.5, 10 mg/kg/d) | Vacuolation, minimal: % (E11.5, 10 mg/kg/d) | CA, any severity: % (E17.5, 2 mg/kg/d) | CA, any severity: % (E17.5, 10 mg/kg/d) | CA, marked: % (E17.5, 10 mg/kg/d) | Increase in cell death: % (E17.5, 10 mg/kg/d) | Vacuolation, any severity: % (E17.5, 10 mg/kg/d)
5: CA, any severity: N (E11.5, 2 mg/kg/d) | CA, minimal to mild: N (E11.5, 2 mg/kg/d) | CA, any severity: N (E11.5, 10 mg/kg/d) | Vacuolation, any severity: N (E11.5, 10 mg/kg/d) | Vacuolation, minimal: N (E11.5, 10 mg/kg/d) | CA, any severity: N (E17.5, 2 mg/kg/d) | CA, any severity: N (E17.5, 10 mg/kg/d) | CA, marked: N (E17.5, 10 mg/kg/d) | Increase in cell death: N (E17.5, 10 mg/kg/d) | Vacuolation, any severity: N (E17.5, 10 mg/kg/d)
40%: CA, moderate: % (E11.5, 10 mg/kg/d) | CA, minimal to mild: % (E17.5, 2 mg/kg/d) | Vacuolation, minimal: % (E17.5, 10 mg/kg/d)
60%: Increase in mitotic figures: % (E11.5, 2 mg/kg/d) | CA, marked: % (E11.5, 10 mg/kg/d) | Increase in cell death: % (E11.5, 10 mg/kg/d) | CA, moderate: % (E17.5, 2 mg/kg/d) | Vacuolation, mild: % (E17.5, 10 mg/kg/d)

Source: article PMC7064328 (Environmental Health Perspectives, 2020)
